{"source": "paper PMC9032385", "about": "“A2A Adenosine Receptor Antagonists: Are Triazolotriazine and Purine Scaffolds Interchangeable?” (Molecules, 2022)", "key": {"[1]": {"biological_target": "T1, human recombinant A2AAR (Homo sapiens, UniProt P29274)", "T1 construct": "expressed in transfected cells; membrane preparation", "T1 sequence (P29274 whole entry)": "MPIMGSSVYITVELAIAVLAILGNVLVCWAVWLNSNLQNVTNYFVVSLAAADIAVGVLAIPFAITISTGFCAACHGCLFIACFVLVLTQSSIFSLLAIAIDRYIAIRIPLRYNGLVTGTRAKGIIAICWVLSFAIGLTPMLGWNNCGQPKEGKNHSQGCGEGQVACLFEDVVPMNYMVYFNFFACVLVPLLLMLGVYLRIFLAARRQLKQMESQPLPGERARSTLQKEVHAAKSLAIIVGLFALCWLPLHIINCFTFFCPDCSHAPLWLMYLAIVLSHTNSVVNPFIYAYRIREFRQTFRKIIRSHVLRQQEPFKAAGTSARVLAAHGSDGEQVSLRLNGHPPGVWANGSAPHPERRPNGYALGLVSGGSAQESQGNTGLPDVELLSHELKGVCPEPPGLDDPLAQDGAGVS", "test": "Radioligand binding at human A2AAR ([3H]NECA displacement, CHO cell membranes)", "details": "ratio of Ki values", "method": "Most of the compounds were also evaluated at A2BARs in a functional study using the GloSensor cAMP assay. […] In the case of A2BARs, Ki-values were calculated from IC50-values determined by the inhibition of NECA-stimulated adenylyl cyclase activity.\nPreparation of membranes: Cell membranes for binding assays were prepared mechanically detaching the cells from the petri and suspending them in a cold hypotonic buffer (5 mM Tris/HCl, 2 mM EDTA, pH 7.4). The cell suspension was homogenized (Ultra-Turrax, 2 × 15 s at maximum speed) and the homogenate centrifuged for 10 min (4 °C) to 1000× g. […] The amount of the protein suspension was determined according to the […] using the BCA Protein Assay Kit (Pierce), frozen in liquid nitrogen, and stored at −80 °C.\nBinding assays: The dissociation constants of the radioligand (KD) were calculated through saturation assays, while the dissociation constants of the compounds under study (Ki) were determined by competition experiments. All binding data were calculated by nonlinear regression curves using the software GraphPad Prism 5 (GraphPad Software, San Diego, CA, USA). The increasing concentrations of the radioligand saturation binding ([^3H]-CCPA for the A1 receptor subtype, [^3H]-NECA for the A2A receptor subtype, and [^3H]-HEMADO for the A3 receptor) subtype were incubated in a total volume of 250 μL containing 0.2 U/mL of Ado deaminase (ADA) and 12 micrograms of membrane proteins in the specific buffer. In competition experiments for the A1 receptor subtype, each compound was added at increasing concentrations, to the well containing 1 nM of [^3H]-CCPA, to a final volume of 200 μL. The samples were left to incubate for 3 h at room temperature, filtered in a filter 96-well plate (UniFilter GF/C, Perkin-Elmer Life and Analytical Science, Boston, MA) using the FilterMate Cell Harvester (Perkin-Elmer), and washed 3 times with cold distilled water. After drying the filter plate at 40 °C for 30′, they 20 μL of scintillating liquid (Microscint-20, Perkin-Elmer) was added to each well, and then the radioactivity was quantized with the MicroBeta2 Plate Counter (Perkin-Elmer). The conditions for binding experiments at A2A and A3 receptor subtypes were essentially the same as for the A1AR using [^3H]-NECA (N-ethylcarboxyamideAdo) at a concentration of 10 nM and [^3H]-HEMADO (2-(1-hexyne)-N^6-methylAdo) at a concentration of 1 nM as radioligands, respectively. The samples were incubated with 12 micrograms of protein for 3 h at room temperature and filtered as described above.\nThe non-specific binding was determined in the presence of 1 mM theophylline for the A1AR, or 100 µM R-PIA (N^6-(1-methyl-2-phenylethyl)Ado) for the A2A and A3 receptors."}, "[2]": {"test_system": "BV-2 murine microglial cells", "test": "RT-PCR expression of inflammatory mediators in LPS-activated BV-2 cells", "format": "cell-based", "details": "10 nM for 24 h, then 100 ng/mL LPS 24 h", "method": "BV-2 cells were treated with 13 or ANR 94 (10 nM) and activated with 100 ng/mL LPS for 24 h. Total RNA was isolated, and proinflammatory cytokine and enzyme expressions were measured using RT-PCR (Figure 5).\nCell Cultures and Treatments: BV-2 murine microglial cells (a gift from Prof. Elisabetta Blasi of the University of Modena and Reggio Emilia, Modena, Italy) were maintained at 37 °C and 5% CO2 in a humidified incubator and grown in DMEM supplemented with 10% (v/v) low-endotoxin fetal bovine serum (Euroclone—Milan, Italy), 2 mM L-glutamine, 50 U/mL penicillin, and 50 μg/mL streptomycin (Sigma-Aldrich–Merck, Milan, Italy). Cells were seeded at 50,000 cells/mL in 96-well tissue culture plates for the viability assay, in 6-well tissue culture plates for the Griess assay and RT-PCR assay. BV-2 cells were treated for 24 h with ANR 94 or 13 at different concentrations and then exposed to LPS (100 ng/mL; Sigma-Aldrich–Merck) for a further 24 h.\nReal-Time Polymerase Chain Reaction (PCR): At the end of the experiments, total RNA was extracted by BV-2 cells using RNeasy Mini Kit (QIAGEN GmbH, Hilden, Germany). RNA concentraion and quality were measured on a NanoVue Spectrophotometer (GE Healthcare, Milano, Italy). iScript cDNA Synthesis Kit (Bio-Rad, Hercules, CA, USA) was used to synthesize cDNA starting from the extracted RNA, following the supplier’s instructions. PCR was performed by adding 2.5 μL (12.5 ng) of cDNA, 5 μL SsoAdvanced Universal SYBR Green Supermix (Bio-Rad), and 0.5 μL (500 nM) of each primer (Table 2) to a PCR tube. cDNA amplification was started at 95 °C for 30 s to activate the polymerase, followed by 40 cycles of 5 s at 95 °C and 30 s at 60 °C. Normalized expression levels were calculated relative to the control cells according to the 2^−ΔΔCT method."}, "[3]": {"biological_target": "T2, human recombinant A1AR (Homo sapiens, UniProt P30542)", "T2 construct": "expressed in transfected cells; membrane preparation", "T2 sequence (P30542 1-326)": "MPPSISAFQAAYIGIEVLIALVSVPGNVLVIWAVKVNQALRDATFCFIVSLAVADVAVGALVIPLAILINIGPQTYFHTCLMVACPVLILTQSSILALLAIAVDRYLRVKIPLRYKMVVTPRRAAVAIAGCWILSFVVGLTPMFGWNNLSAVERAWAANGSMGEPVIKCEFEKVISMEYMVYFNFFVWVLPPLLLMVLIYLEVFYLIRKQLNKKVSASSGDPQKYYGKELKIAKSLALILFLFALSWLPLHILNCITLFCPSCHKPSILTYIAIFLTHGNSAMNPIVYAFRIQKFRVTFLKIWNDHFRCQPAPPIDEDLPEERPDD", "details": "reference compound ANR 94, reference printed at end of table row; cited from earlier work"}, "[4]": {"biological_target": "T3, A2BAR (Homo sapiens, UniProt P29275)", "T3 construct": "expressed in transfected cells", "T3 sequence (P29275 1-332)": "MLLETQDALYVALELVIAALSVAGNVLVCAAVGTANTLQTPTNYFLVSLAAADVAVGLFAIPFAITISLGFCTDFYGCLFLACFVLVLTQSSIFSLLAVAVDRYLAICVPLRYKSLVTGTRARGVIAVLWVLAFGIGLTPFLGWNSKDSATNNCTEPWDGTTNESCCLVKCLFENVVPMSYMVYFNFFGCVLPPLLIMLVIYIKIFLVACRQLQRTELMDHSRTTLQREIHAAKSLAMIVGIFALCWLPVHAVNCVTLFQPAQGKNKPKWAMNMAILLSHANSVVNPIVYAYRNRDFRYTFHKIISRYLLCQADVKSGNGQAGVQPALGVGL", "details": "reference compound ANR 94, reference printed at end of table row; cited from earlier work"}, "[5]": {"biological_target": "T4, human recombinant A3AR (Homo sapiens, UniProt P0DMS8)", "T4 construct": "expressed in transfected cells; membrane preparation", "T4 sequence (P0DMS8 1-318)": "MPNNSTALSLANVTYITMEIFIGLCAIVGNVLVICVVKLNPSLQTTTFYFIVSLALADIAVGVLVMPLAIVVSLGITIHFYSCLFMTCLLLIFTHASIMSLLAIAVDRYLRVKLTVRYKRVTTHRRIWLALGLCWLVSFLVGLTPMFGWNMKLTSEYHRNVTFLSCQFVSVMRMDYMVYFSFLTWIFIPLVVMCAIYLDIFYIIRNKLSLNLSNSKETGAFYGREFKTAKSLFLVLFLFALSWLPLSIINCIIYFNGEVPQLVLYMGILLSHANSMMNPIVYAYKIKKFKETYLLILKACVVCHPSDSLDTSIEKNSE", "details": "reference compound ANR 94; cited from earlier work"}, "[6]": {"test_system": "catalepsy induced by haloperidol", "design": "method as in PMID 35184706", "details": "in vivo model of Parkinson's disease; cited from earlier work"}, "[7]": {"test_system": "rats sensitized to L-DOPA", "design": "method as in PMID 35184706", "details": "cited from earlier work"}, "[8]": {"test_system": "tremor induced by tacrine", "design": "method as in PMID 35184706", "details": "cited from earlier work"}, "[9]": {"test_system": "neuronal injury model induced by 6-hydroxydopamine", "design": "method as in PMID 35184706", "details": "cited from earlier work"}, "[10]": {"test_system": "murine model of PD", "design": "method as in PMID 19951715", "details": "cited from earlier work"}}, "data": [{"smiles": "CCOc1nc2c(N)ncnc2n1CC", "note": "[ANR 94, 9-ethyl-8-ethoxyadenine]", "values": [{"measurement": "selectivity A1/A2A", "setting": "[1]", "result": 52}, {"measurement": "selectivity A2B/A2A", "setting": "[1]", "result": "> 652"}, {"measurement": "selectivity A3/A2A", "setting": "[1]", "result": 457}, {"measurement": "COX-2 mRNA expression vs LPS", "setting": "[2]", "result": "only able to significantly reduce the expression of IL-1β"}, {"measurement": "IL-1β mRNA expression vs LPS", "setting": "[2]", "result": "significantly reduce the expression of IL-1β"}, {"measurement": "IL-6 mRNA expression vs LPS", "setting": "[2]", "result": "only able to significantly reduce the expression of IL-1β"}, {"measurement": "iNOS mRNA expression vs LPS", "setting": "[2]", "result": "only able to significantly reduce the expression of IL-1β"}, {"measurement": "Ki", "setting": "[3]", "result": 2400, "unit": "nM"}, {"measurement": "Ki", "setting": "[4]", "result": "> 30", "unit": "µM"}, {"measurement": "Ki", "setting": "[5]", "result": 21, "unit": "µM"}, {"measurement": "effect on catalepsy induced by haloperidol", "setting": "[6]", "result": "reversed the catalepsy induced by haloperidol"}, {"measurement": "contralateral turning behavior", "setting": "[7]", "result": "induced contralateral turning behavior"}, {"measurement": "intensity of the tremor induced by tacrine", "setting": "[8]", "result": "good efficacy in lowering the intensity of the tremor"}, {"measurement": "motor deficit", "setting": "[9]", "result": "reducing the motor deficit"}, {"measurement": "microglia activation", "setting": "[10]", "result": "ability to reduce microglia activation"}]}]}
